Article PMC7125202, “Targeting of radioactive platinum-bisphosphonate anticancer drugs to bone of high metabolic activity” (Scientific Reports, 2020)

What was measured:
[1] = In vivo biodistribution of cold Pt-species, Pt quantified by ICP-MS; parameters: species or system C57Bl/6N mice; settings: 24 h after i.v. injection, 2.5 mM Pt
Description: The Pt-BP and Pt(NO3)2(en) complexes were administered intravenously in the tail vein of C57BL/6N mice (n = 5 per each platinum complex). Sterile saline solution (0.9% NaCl) was used to dissolve platinum complexes. The concentration of injected Pt-BP or Pt(NO3)2(en) solutions was 2.5 mM platinum, calculated based on the maximum tolerated dose for cisplatin of 6 mg per kg body weight of the mice[37]. The mice were euthanized with CO2 24 h after injection, after which blood (approximately 600 mg per mouse), liver, spleen, kidneys, heart, lungs, and bones (femur, humerus, tibia, and spine) were harvested. Approximately half of the tissues were prepared for inductively coupled plasma-mass spectrometry (ICP-MS) analysis by digestion in 65% (v/v) nitric acid at 75 °C for approximately three days until the tissues were digested completely. Each tissue was cut into three samples and the samples were weighed prior to digestion in nitric acid. The digested solutions were diluted with up to 6 ml of Milli-Q water to obtain 2% (v/v) nitric acid in order to measure platinum concentrations by ICP-MS (X series I, Thermo Electron Corporation). The detection limit for determining platinum concentration with ICP-MS was 1 ppb. The standard solutions were prepared from 1000 mg·1^−1 platinum ICP standard Certipur (1.70341.0100, Merck) ranging from 1 ppb to 2500 ppb. The measured isotopes for platinum were ^194Pt, ^195Pt, ^196Pt, and ^198Pt. Furthermore, scandium (^45Sc) was added as an internal standard, which was prepared with 1000 mg·1^−1 scandium standard Certipur (1.19513.0100, Merck) to correct for matrix effects and long-term fluctuations of the measurement signal. The platinum concentrations in the various tissues were calculated relative to 1 mg of the specific tissue and represented as ng Pt/mgtissue. Three replicates of Pt-BP and Pt(NO3)2(en) solutions with volumes and platinum concentrations identical to the solutions injected to the mice (200 µl and 2.5 mM platinum, respectively) were also analyzed for their platinum content using ICP-MS as control. The percentage of injected dose (%ID) of Pt-BP and Pt(NO3)2(en) in each mouse tissue 24 h after injection was calculated by dividing the total amount of platinum per tissue through the total amount of platinum detected in the control solutions[52].

genomic DNA = experiment: Pt-DNA adducts quantification using High Resolution ICP-MS; type: in vivo, C57Bl/6N mice; settings: 24 h after i.v. injection
Excerpt: The remaining half of the tissues from all mice were dissected and weighed for DNA extraction. DNA was isolated using DNeasy Blood & Tissue Kit (Qiagen, USA) for soft tissue and ChargeSwitch® gDNA Plant Kit (Thermofisher, USA) for bone samples. The DNA was digested with DNase I Solution (Thermofisher, USA) and filtered using 0.2 µm acrodisc GHP before analysis for Pt content using high resolution-ICP-MS (Element2, Thermo Finnigan). The detection limit for determining the platinum concentration was 2 ng/l. The standard solutions were prepared from 1000 mg·1^−1 platinum ICP standard Certipur (1.70341.0100, Merck) ranging from 5 ppt to 10 ppb. The selected isotopes for platinum were ^194Pt and ^195Pt. Furthermore, thallium (Tl) was added as an internal standard and determined at a molecular mass of 205 Da, which was prepared using a 1000 mg·1^−1 thallium standard (CGTL-1, Inorganic Ventures) to correct for matrix effects and long-term fluctuations of the analytical signal. The Pt-DNA adduct concentration is represented as percentage of Pt involved in adduct formation to the total amount of Pt accumulated in the specific tissue.

[2] = Laser ablation ICP-MS imaging of Pt co-localization with calcium in mice tibia; type: in vivo; settings: proximal tibia sections; for percentage of Pt co-localized with calcium: LA-ICP-MS
Description: The experimental procedure was carried out as reported previously. The mice tibias were incubated in neutral buffered formaldehyde for 36 h. Later, tibias were dehydrated in ascending grades of 70% to 100% ethanol and embedded in poly(methyl methacrylate) (pMMA) resin, freshly prepared by mixing 600 mL of methyl methacrylate monomer (Acros Organics BVBA, Geel, Belgium), 60 ml dibutyl phthalate (Merck KGaA, Darmstadt, Germany) and 1.25 g perkadox®16 (Aldrich, Netherlands). The polymerization was followed by cutting serial horizontal sections (perpendicular to the tibia sample) of 5 µm thickness within the trabecular region of interest using an RM2155 microtome with a TC 65 blade (Leica Microsystems GmbH, Wetzlar, Germany). Microscopic images were obtained using an inverted fluorescence/bright field microscope (BZ-9000, Keyence Deutschland GmbH, Neu-Isenburg, Germany). For image recording and processing, the software BZ-II Viewer and BZ-II Analyzer were used, respectively. To calculate the percentage of platinum co-localized with calcium, the background of the image and all pixels without hard bone tissue were excluded from the calculations. A pixel is considered to be background if its calcium intensity is below 15%. The platinum concentrations of the remaining pixels were then added up and divided by the sum of the entire platinum image to yield the percentage of platinum co-localized with calcium.

[3] = micro-SPECT/CT quantification of 195mPt biodistribution; type: in vivo, C57BL/6N mice
Excerpt: (§1) The ^195mPt-BP and ^195mPt(NO3)2(en) complexes were reconstituted in sterile saline solution (0.9% NaCl) and administered intravenously in the tail vein of C57BL/6N mice (n = 5 per each platinum complex). All mice received an intravenous injection with a dose of 11.2 ± 0.4 MBq ^195mPt. Immediately after injection and 1, 3, and 7 days after injection, images were acquired with U-SPECT-II/CT(MILabs) as reported previously[54],[55]. Mice were scanned under general anesthesia (isoflurane/O2) for 15 to 60 minutes using the 1.0-mm diameter pinhole mouse high sensitivity collimator tube, followed by a CT scan (spatial resolution […], 65 kV, […]) for anatomical reference. Scans were reconstructed with MILabs reconstruction software using an ordered-subset expectation maximization algorithm, with a voxel size of 0.4 mm. SPECT/CT scans were analyzed and maximum intensity projections were created using the Inveon Research Workplace software (IRW, version 4.1). A 3D volume of interest was drawn using CT threshold to differentiate soft tissue from skeletal tissue and uptake was quantified as the percentage injected dose per gram (%ID/g), assuming a tissue density of 1 g/cm^3. The hot spot in the skeletal tissue region of interest (ROI) was chosen with the location of the edge of the ROI contour representing 75% of maximum intensity. The mice from ^195mPt(NO3)2(en) group were euthanized with CO2 after 3 days due to excessive loss of body weight, whereas mice from treated with ^195mPt-BP were sacrificed at the end of experiments. After euthanizing the animals, blood (approximately 600 mg per mouse), liver, spleen, kidneys, heart, lungs, and bones (femur, humerus, tibia, and spine) were harvested and analyzed with a gamma counter (1470 Wizard, Perkin Elmer).

[4] = In vivo biodistribution of radioactive Pt-species, excised tissues by gamma counting; parameters: species or system C57BL/6N mice; settings: 11.2 MBq i.v.
Excerpt: as §1

[5] = Body weight, behaviour and toxicity of mice after injection of radioactive Pt-species; type: in vivo, C57BL/6N mice; settings: for body weight and behavioral changes: 11.2 ± 0.4 MBq 195mPt i.v., first 3 days p.i. for 195mPt(NO3)2(en)
Description: All in vivo work was conducted in accordance with ISO standards and the principles set forth by the Revised Dutch Act on Animal Experimentation. The in vivo experiments were approved by the institutional Animal Welfare Committee of the Radboud University Medical Center (Radboudumc), Nijmegen, the Netherlands. For both the experiment, 10 male C57Bl/6N mice (Charles River), with an average weight of ~25 g and an age of approximately 6–8 weeks were housed in filter-topped cages (5 mice per cage) under non-sterile standard conditions provided with standard animal food and water ad libitum. The mice were allowed to adapt to laboratory conditions for 1 week before experimental use. The humane end point were defined as follows, body weight gain of> 20% within 10 days, no water or food intake, weight loss of >15% within 1–2 days or> 20% of normal body weight of that animal, serious circulatory or respiratory problems, behavioural changes (hyperactivity, passive, auto-mutilation), and morbidities such as impaired mobility or lethargy.
as §1, with “The mice from ^195mPt(NO3)2(en) group were euthanized with CO2 after 3 days due to excessive loss of body weight, whereas mice from treated with ^195mPt-BP were sacrificed at the end of experiments.” left out

[6] = Whole-body 195mPt radioactivity in mice measured using an ionization chamber; type: in vivo; settings: day 7
Excerpt: Figure S3. ^195mPt radioactivity in mice. Percentage of injected dose (%ID) of ^195mPt-BP and ^195mPt(NO3)2(en) in mice, measured using an ionization chamber. ** P < 0.01; ****P < 0.0001 as determined by two-way ANOVA with a Bonferroni (multiple comparisons) post-hoc test.

Ehrlich solid carcinoma = system: Ehrlich solid carcinoma; parameters: method as in doi:10.1007/s10967-015-4053-1; settings: cited from earlier work
zebrafish embryos = experiment: Phenotypic assessment of drug-treated zebrafish embryos; type: in vivo, zebrafish (Danio rerio); settings: Pt-BP 5-100 µM, cisplatin 30 µM
Description: The zebrafish (Danio rerio) strains were kept under standard conditions (28 °C in E3 buffer) until 48 hours post fertilization (hpf) as described previously. All animal experiments were conducted at larval stages before the point of independent feeding and were in agreement with the animal protection law (Tierschutzgesetz).
48 hpf wildtype embryos were separated into 6 groups (n = 20 embryos/group), i.e., control (untreated) and embryos treated with 5 µM, 10 µM, 50 µM, and 100 µM Pt-BP as well as 30 µM cisplatin. Both types of compounds were added externally to the medium and the embryos were incubated at 33 °C for the duration of the experiment. The embryos were assessed each day for phenotypic toxicity until 2 days post treatment (48 hpt) and imaged live in an Olympus MVX10 microscope.

[7] = parameters: method as in PMID 29037232; settings: cited from earlier work

Structure (SMILES): NCCN.O=[N+]([O-])[O-].O=[N+]([O-])[O-].[Pt+2] [Pt(NO3)2(en), reference compound]
- Pt uptake in hard tissue [1]: 2.69 ± 0.26 %ID/g
- Pt uptake in kidney [1]: 3.38 ± 0.28 %ID/g
- Pt uptake in liver [1]: 1.54 ± 0.33 %ID/g
- Pt uptake in spleen [1]: 0.38 ± 0.04 %ID/g
- Pt accumulation in hard tissue (bone) ([1]; normalized for tissue weight): ~ 1 ng Pt/mg tissue
- Pt-DNA adduct formation relative to total Pt uptake, kidney (genomic DNA): 4.8%
- Pt-DNA adduct formation relative to total Pt uptake, spleen (genomic DNA): 9.8%

Structure (SMILES): NCCN.O=[N+]([O-])[O-].O=[N+]([O-])[O-].[195Pt+2] [^195mPt(NO3)2(en), reference compound]
- Pt not co-localized with Ca (Pt in soft tissue of the proximal tibia) ([2]; Fig. 4C): 10%
- percentage of Pt co-localized with calcium [2]: 37.3%
- co-localization of Pt with Ca relative to that of 195mPt-BP ([2]; total amount of Pt, Fig. 4C): 27%
- hard-to-soft tissue uptake ratio ([3]; 1 h, excluding bladder uptake): 1
- hard-to-soft tissue uptake ratio ([3]; 24 h): 1.2
- hard-to-soft tissue uptake ratio ([3]; 72 h): 1.2
- uptake in bone (hard tissue) ([3]; micro-SPECT/CT, 1 h p.i.): 1.5 ± 0.1 %I.D/g
- uptake in soft tissue ([3]; micro-SPECT/CT, 1 h p.i.): 1.43 ± 0.21 %I.D/g
- uptake in bones (femur, tibia, humerus) ([4]; gamma counting after 3 days): 1.4 ± 0.15 %ID/g
- uptake in kidneys ([4]; gamma counting after 3 days): 3.95 ± 0.24 %ID/g
- uptake in liver ([4]; gamma counting after 3 days): 3.22 ± 0.28 %ID/g
- uptake in lungs ([4]; gamma counting after 3 days): 1.08 ± 0.16 %ID/g
- uptake in spleen ([4]; gamma counting after 3 days): 2.76 ± 0.67 %ID/g
- body weight and behavioral changes [5]: significant body weight loss
- weight loss ([5]; humane end point, euthanized after 3 days): more than 20%

Structure (SMILES): NCCN.NCCN.O.O.O.O=S(=O)([O-])O.[NH3+]CC1(O)P2(=O)[O][195Pt][O]P1(=O)[O][195Pt][O]2 (stereo not drawn) [^195mPt-BP]
- Pt not co-localized with Ca (Pt in soft tissue of the proximal tibia) ([2]; Fig. 4C): 20%
- accumulation of Pt in bone compared to 195mPt(NO3)2(en) ([2]; Fig. 4C): almost a fourfold increased accumulation
- percentage of Pt co-localized with calcium [2]: 73.5%
- hard-to-soft tissue uptake ratio ([3]; 1 h, excluding bladder uptake): 3.3
- hard-to-soft tissue uptake ratio ([3]; 24 h): 6
- hard-to-soft tissue uptake ratio ([3]; 72 h): 6.7
- uptake in bone (hard tissue) ([3]; micro-SPECT/CT, 1 h p.i.): 1.8 ± 0.25 %I.D/g
- uptake in soft tissue ([3]; micro-SPECT/CT, 1 h p.i.): 0.93 ± 0.27 %I.D/g
- uptake in soft tissue ([3]; micro-SPECT/CT, 24 h): 0.18 ± 0.03 %I.D/g
- uptake in hot spots in bone (ROI 75% of maximum intensity) compared to 195mPt(NO3)2(en) ([3]; micro-SPECT/CT, all time points): twofold increased uptake
- uptake in bone (hard tissue) ([3]; micro-SPECT/CT, from 24 h until day 7): 1.0 ± 0.12 %I.D/g
- uptake in femur ([4]; gamma counting after 7 days): 3.1 ± 0.37 %ID/g
- uptake in humerus ([4]; gamma counting after 7 days): 2.53 ± 0.33 %ID/g
- uptake in kidneys ([4]; gamma counting after 7 days): 0.43 ± 0.16 %ID/g
- uptake in soft tissues except kidneys ([4]; gamma counting after 7 days): < 0.11 %ID/g
- uptake in tibia ([4]; gamma counting after 7 days): 2.86 ± 0.46 %ID/g
- whole-body radioactivity [6]: 2 %ID
- body weight and behavioral changes [5]: no behavioral or body changes were observed
- Pt-based toxicity ([5]; over a period of 7 days): did not observe any Pt-based toxicity

Structure (SMILES): N.N.[Cl][Pt][Cl] [^195mPt-cisplatin]
- inhibition of tumor growth, more effective compared to non-radioactive cisplatin (Ehrlich solid carcinoma): 30%

Structure (SMILES): N.N.[Cl][Pt][Cl] [cisplatin]
- visual inspection of kidneys based on size and shape (zebrafish embryos): apparent shrinkage
- rapid weight loss followed by recovery within a week ([7]; mice at maximum tolerated dose): ~ 10%
- maximum tolerated dose ([7]; mice): 6 mg/kg
